Experimental data from patent publication US11684067B2, “Generation of peroxyformic acid through polyhydric alcohol formate” (priority 2014, dated 2023).
Values joined by “and” are separate entries in the source; they are usually repeats but may differ in a detail not shown here. Equal values may be shown once.

Tests used:
[1] = Physical properties (hygroscopicity, water solubility) of formate esters prepared; format: physicochemical; details: hexaformates: at room temperature
[2] = system: Candida albicans ATCC 10231; assay: Fungicidal/yeasticidal activity of ester PFA versus POAA (Example 22); format: cell-based; details: 20°C, dirty
Excerpt: (§1) Canidia and Aspergillus pathogens were used to evaluate the micro efficacy of ester PFA generated according to methods of the present invention in comparison to POAA.

[3] = system: Aspergillus brasiliensis ATCC 16404; assay: as above; format: cell-based; details: 20°C, dirty
Excerpt: as §1

[4] = system: Bacillus subitilisATCC 19659; assay: Sporicidal activity of ester PFA versus POAA (Example 23); format: cell-based, Bacillus subtilis; details: 20°C, dirty
Excerpt: Additional Bacillus pathogens were used to evaluate the micro efficacy of ester PFA generated according to methods of the present invention in comparison to POAA.

[5] = system: Enterococcus hirae ATCC 10541; assay: Bactericidal activity of ester PFA versus POAA, EN 1276, dirty conditions; format: cell-based; details: 20°C
Excerpt: (§2) Additional Staphylococcus, Enterococcus and Pseudomonas pathogens were used to evaluate the micro efficacy of ester PFA generated according to methods of the present invention in comparison to POAA.

[6] = system: Pseudomonas aeruginosa ATCC 15442; assay: as above; format: cell-based; details: 20°C
Excerpt: as §2

[7] = system: Staphylococcus aureus ATCC 6538; assay: as above; format: cell-based; details: 20°C
Excerpt: as §2

[8] = system: Bacillus subitilisATCC 19659; assay: Sporicidal activity of ester PFA versus POAA (Example 21); format: cell-based, Bacillus subtilis; details: 20°C, dirty
Excerpt: Bacillus pathogens were used to evaluate the micro efficacy of ester PFA generated according to methods of the present invention in comparison to POAA.

[9] = Laundry disinfection efficacy, EPA protocol on 100% cotton carriers (Table 38); format: cell-based; details: 42 ppm, pH 7.7, 500 ppm hard water, 40° C., 5 minute exposure, vs water control
Method: The microbial efficacy of peroxyformic acid was also tested following the EPA protocol on 100% cotton carriers against a water control. The test conditions were pH 7.7, 500 ppm hard water, 40° C. and 5 minute exposure time. In comparison, the performance of peracetic acid was also tested under the same conditions.

[10] = system: Nalidixic acid resistant E. coli O157:H7; assay: Reduction of E. coli on raw beef brisket, dip treatment; format: cell-based; details: 10 minutes dip, ambient, 220 ppm POAA / 180 ppm PFA / 50 ppm LAS per formula (Table 15)
Method: Nalidixic acid resistant E. coli O157:H7 was used to evaluate the efficacy in treatment with performic acid composition on raw beef brisket according to the conditions shown in Table 14.
The generation of PFA from the perhydrolysis of glycerol formates, PFA formulations, POAA formations and controls were evaluated as shown in Table 15.

pseudomonas = assay: Suspension test in cooling tower water samples; format: cell-based; details: 10 minutes
Method: The antimicrobial efficacy of peroxyformic acid generated through the perhydrolysis of glycerol formatted were tested against pseudomonas in cooling tower samples at both 25° C. and 37° C., along with the peroxyacetic acid (POAA) controls, and the results are summarized in Table 6 and 7 below.

[11] = 200 ppm PFA pH 6.15 / 245 ppm POAA pH 6.56, 5 minutes
[12] = 200 ppm PFA pH 6.15 / 245 ppm POAA pH 6.56, 10 minutes
[13] = 200 ppm PFA pH 6.15 / 245 ppm POAA pH 6.56, 15 minutes
[14] = 300 ppm PFA pH 6.21 / 368 ppm POAA pH 6.63, 5 minutes
[15] = 300 ppm PFA pH 6.21 / 368 ppm POAA pH 6.63, 10 minutes
[16] = 300 ppm PFA pH 6.73 / 368 ppm POAA pH 6.88, 5 minutes
[17] = 300 ppm PFA pH 6.73 / 368 ppm POAA pH 6.88, 10 minutes
[18] = 400 ppm PFA pH 6.95 / 490 ppm POAA pH 6.65, 5 minutes
[19] = 400 ppm PFA pH 6.95 / 490 ppm POAA pH 6.65, 10 minutes
[20] = 20 ppm PFA pH 6.61 / 24.8 ppm POAA pH 6.73, 5 minutes
[21] = 30 ppm PFA pH 6.74 / 37.6 ppm POAA pH 6.90, 5 minutes
[22] = 50 ppm PFA pH 6.60 / 62.4 ppm POAA pH 6.98, 5 minutes
[23] = 300 ppm PFA pH 6.84 / 368 ppm POAA pH 6.73 (molar equivalent), 5 minutes
[24] = 300 ppm PFA pH 6.84 / 368 ppm POAA pH 6.73 (molar equivalent), 10 minutes
[25] = 400 ppm PFA pH 7.19 / 490 ppm POAA pH 6.78 (molar equivalent), 5 minutes
[26] = 400 ppm PFA pH 7.19 / 490 ppm POAA pH 6.78 (molar equivalent), 10 minutes
[27] = BP Cooling Water pH 8.74, 5 ppm Ester PFA / 6.13 ppm POAA, 25°C
[28] = BP Cooling Water pH 8.74, 5 ppm Ester PFA / 6.13 ppm POAA, 37°C
[29] = BP Cooling Water pH 8.74, 12.3 ppm POAA, 25°C
[30] = BP Cooling Water pH 8.74, 12.3 ppm POAA, 37°C
[31] = Peninsula Cooling Water pH 8.81, 5 ppm Ester PFA / 6.13 ppm POAA, 25°C
[32] = Peninsula Cooling Water pH 8.81, 5 ppm Ester PFA / 6.13 ppm POAA, 37°C
[33] = Peninsula Cooling Water pH 8.81, 12.3 ppm POAA, 25°C
[34] = Peninsula Cooling Water pH 8.81, 12.3 ppm POAA, 37°C

## O=COC[C@@H](OC=O)[C@@H](OC=O)[C@H](OC=O)[C@@H](COC=O)OC=O [Mannitol Hexaformates]
[1]
  solubility in water of the isolated solid: marginally soluble in water

## CC(=O)OO [POAA, peroxyacetic acid, reference compound]
[2]; [11]
  Average CFU/mL: <140 CFU/mL
  Log10 Growth: <2.15 Log10
  Log10 Reduction: >4.14 Log10
[2]; [12]
  Average CFU/mL: <140 CFU/mL
  Log10 Growth: <2.15 Log10
  Log10 Reduction: >4.14 Log10
[2]; [13]
  Average CFU/mL: <140 CFU/mL
  Log10 Growth: <2.15 Log10
  Log10 Reduction: >4.14 Log10
[2]; [14]
  Average CFU/mL: <140 CFU/mL
  Log10 Growth: <2.15 Log10
  Log10 Reduction: >4.14 Log10
[2]; [15]
  Average CFU/mL: <140 CFU/mL
  Log10 Growth: <2.15 Log10
  Log10 Reduction: >4.14 Log10
[3]; [11]
  Average CFU/mL: >1.65E+05 CFU/mL
  Log10 Growth: >5.22 Log10
  Log10 Reduction: <0.53 Log10
[3]; [12]
  Average CFU/mL: >1.65E+05 CFU/mL
  Log10 Growth: >5.22 Log10
  Log10 Reduction: <0.53 Log10
[3]; [13]
  Average CFU/mL: >1.65E+05 CFU/mL
  Log10 Growth: >5.22 Log10
  Log10 Reduction: <0.53 Log10
[3]; [14]
  Average CFU/mL: >1.65E+05 CFU/mL
  Log10 Growth: >5.22 Log10
  Log10 Reduction: <0.53 Log10
[3]; [15]
  Average CFU/mL: >1.65E+05 CFU/mL
  Log10 Growth: >5.22 Log10
  Log10 Reduction: <0.53 Log10
[4]; [16]
  Average CFU/mL: >3.0E+06 CFU/mL
  Log10 Growth: >6.48 Log10
  Log10 Reduction: <1.26 Log10
[4]; [17]
  Average CFU/mL: >3.0E+05 CFU/mL
  Log10 Growth: >5.48 Log10
  Log10 Reduction: <2.26 Log10
[4]; [18]
  Average CFU/mL: >3.0E+06 CFU/mL
  Log10 Growth: >6.48 Log10
  Log10 Reduction: <1.26 Log10
[4]; [19]
  Average CFU/mL: >3.0E+05 CFU/mL
  Log10 Growth: >5.48 Log10
  Log10 Reduction: <2.26 Log10
[5]; [20]
  Average CFU/mL: >3.30E + 05 CFU/mL
  Log10 Growth: >5.52 Log10
[5]; [21]
  Average CFU/mL: 9.25E + 03 CFU/mL
  Log10 Growth: 3.97 Log10
[5]; [22]
  Average CFU/mL: <140 CFU/mL
  Log10 Growth: <2.15 Log10
[6]; [20]
  Average CFU/mL: <140 CFU/mL
  Log10 Growth: <2.15 Log10
[6]; [21]
  Average CFU/mL: <140 CFU/mL
  Log10 Growth: <2.15 Log10
[6]; [22]
  Average CFU/mL: <140 CFU/mL
  Log10 Growth: <2.15 Log10
[7]; [20]
  Average CFU/mL: 1.77E + 05 CFU/mL
  Log10 Growth: 5.25 Log10
[7]; [21]
  Average CFU/mL: <140 CFU/mL
  Log10 Growth: <2.15 Log10
[7]; [22]
  Average CFU/mL: <140 CFU/mL
  Log10 Growth: <2.15 Log10
[8]; [23]
  Average CFU/mL: 7.50E+05 CFU/mL
  Log10 Growth: 5.88 Log10
  Log10 Reduction: 0.00 Log10
[8]; [24]
  Average CFU/mL: 5.00E+05 CFU/mL
  Log10 Growth: 5.70 Log10
  Log10 Reduction: 0.00 Log10
[8]; [25]
  Average CFU/mL: 8.50E+05 CFU/mL
  Log10 Growth: 5.93 Log10
  Log10 Reduction: 0.00 Log10
[8]; [26]
  Average CFU/mL: 4.00E+05 CFU/mL
  Log10 Growth: 5.60 Log10
  Log10 Reduction: 0.19 Log10
[9]; Klebsiella pneumoniae ATCC 4352
  Log reduction: 2.46
[9]; Staphylococcus aureus ATCC 6538
  Log reduction: >5.85
[10]
  Average Log CFU/cm2: 2.98 Log CFU/cm2
  Log reduction: 1.06 Log
[10]; single samples
  CFU/cm2: 1.20E+03 CFU/cm2 and 9.00E+02 CFU/cm2 and 8.00E+02 CFU/cm2
  CFU/ml: 6.00E+02 CFU/ml and 4.50E+02 CFU/ml and 4.00E+02 CFU/ml
  Log CFU/cm2: 3.08 Log CFU/cm2 and 2.95 Log CFU/cm2 and 2.90 Log CFU/cm2
pseudomonas; [27]
  Avg. Log10 Growth: 4.10 Log10
  Log10 Reduction: 1.57 Log10
pseudomonas; [28]
  Avg. Log10 Growth: 2.84 Log10
  Log10 Reduction: 2.26 Log10
pseudomonas; [29]
  Avg. Log10 Growth: 3.26 Log10
  Log10 Reduction: 2.41 Log10
pseudomonas; [30]
  Avg. Log10 Growth: 2.73 Log10
  Log10 Reduction: 2.37 Log10
pseudomonas; [31]
  Avg. Log10 Growth: 3.81 Log10
  Log10 Reduction: 1.37 Log10
pseudomonas; [32]
  Avg. Log10 Growth: 2.76 Log10
  Log10 Reduction: 2.34 Log10
pseudomonas; [33]
  Avg. Log10 Growth: 3.30 Log10
  Log10 Reduction: 1.88 Log10
pseudomonas; [34]
  Avg. Log10 Growth: 3.20 Log10
  Log10 Reduction: 1.90 Log10
